Calls of active or inactive are those of the source.
Key:
[1] = molecular target: T1, NEDD8-activating enzyme E1 regulatory subunit (Homo sapiens) (UniProt Q13564); assay: Activation of NAE1-mediated neddylation in human HGC-27 cells assessed as increase in NAE1-NEDD8 level incubated for 12 hrs by western blot analysis; format: cell-based; settings: filed as agonist, dose 1-9 µM
T1 sequence (whole entry): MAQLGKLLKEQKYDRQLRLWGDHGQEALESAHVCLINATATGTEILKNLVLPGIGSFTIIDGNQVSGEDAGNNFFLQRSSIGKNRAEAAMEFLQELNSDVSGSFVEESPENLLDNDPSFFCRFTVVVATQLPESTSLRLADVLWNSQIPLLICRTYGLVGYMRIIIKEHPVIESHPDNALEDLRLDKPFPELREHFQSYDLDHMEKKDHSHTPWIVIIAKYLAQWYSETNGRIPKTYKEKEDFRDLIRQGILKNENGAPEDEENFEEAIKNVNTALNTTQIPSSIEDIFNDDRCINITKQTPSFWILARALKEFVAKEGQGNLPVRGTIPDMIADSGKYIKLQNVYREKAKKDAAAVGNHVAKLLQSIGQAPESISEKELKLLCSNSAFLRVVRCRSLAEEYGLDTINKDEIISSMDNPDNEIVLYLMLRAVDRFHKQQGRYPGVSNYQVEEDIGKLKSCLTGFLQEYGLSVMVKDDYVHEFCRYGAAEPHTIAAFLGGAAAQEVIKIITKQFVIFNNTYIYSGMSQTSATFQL

MGC-803 [2] = assay: Induction of cell morphological changes in human MGC-803 cells assessed as cell rounding at 1 to 3 uM measured after 48 hrs by bright field microscopic analysis; format: functional, cell-based; settings: dose 1-3 µM
MGC-803 [3] = assay: Induction of cell morphological changes in human MGC-803 cells assessed as reduction in cell density at 1 to 3 uM incubated for 48 hrs by calcein-AM/PI staining based fluorescence analysis; format: functional; settings: dose 1-3 µM
[4] = molecular target: T1, NEDD8-activating enzyme E1 regulatory subunit (Homo sapiens); assay: Activation of NAE1 in human HGC-27 cells assessed as decrease in c-Myc expression at 1 to 9 uM measured after 48 hrs by western blot analysis; format: cell-based; settings: filed as agonist, dose 1-9 µM
[5] = molecular target: T1, NEDD8-activating enzyme E1 regulatory subunit (Homo sapiens); assay: Activation of NAE1 in human MGC-803 cells assessed as PARP cleavage at 3 uM measured after 48 hrs in the presence of NEDDylation inhibitor, MLN4924 by western blot analysis; format: cell-based
MGC-803 [6] = assay: Antiproliferative activity against human MGC-803 cells assessed as reduction in cell viability at 3 uM measured every 60 mins for 48 hrs in the presence of NEDDylation inhibitor, MLN4924 by xCELLigence based RTCA analysis; format: functional
HGC-27 [7] = assay: Induction of cell morphological changes in human HGC-27 cells at 9 uM measured after 48 hrs in the presence of NEDDylation inhibitor, MLN4924 by DAPI staining based fluorescence analysis; format: functional
MGC-803 [8] = assay: Induction of cell morphological changes in human MGC-803 cells transfected with NEDD8 siRNA assessed as reduction in cell density at 3 uM measured after 48 hrs by calcein-AM/PI staining based fluorescence analysis; format: functional
MGC-803 [9] = assay: Induction of apoptosis in human MGC-803 cells assessed as down regulation of Bcl-2 protein level at 1 to 3 uM measured after 48 hrs by western blot analysis; format: functional, cell-based; settings: dose 1-3 µM
MGC-803 [10] = assay: Inhibition of colony formation in human MGC-803 cells assessed as reduction in number of colonies at 0.125 to 1 uM incubated for 7 days by crystal violet staining based assay; format: functional, cell-based; settings: dose 0.125-1 µM, time 7.0 day
MGC-803 [11] = assay: Induction of G2/M phase arrest in human MGC-803 cells assessed as downregulation of CDK1 protein expression at 1 to 3 uM measured after 48 hrs by western blot analysis; format: functional, cell-based; settings: dose 1-3 µM
HGC-27 [12] = assay: Induction of G2/M phase arrest in human HGC-27 cells assessed as downregulation of CDK1 protein expression at 1 to 9 uM measured after 48 hrs by western blot analysis; format: functional, cell-based; settings: dose 1-9 µM
HGC-27 [13] = assay: Induction of G2/M phase arrest in human HGC-27 cells assessed as downregulation of cyclin B1 expression at 1 to 9 uM measured after 48 hrs by western blot analysis; format: functional, cell-based; settings: dose 1-9 µM

COc1cc(-c2nc(NC(=O)CSC(=S)N3CCN(C(=O)OC(C)(C)C)CC3)nnc2-c2ccc(C)cc2)cc(OC)c1OC
inactive: Activity [5] | Activity (MGC-803 [6]) | Activity (HGC-27 [7]) | Activity (MGC-803 [8])
active: Activity [1] Dose-Dependent Effect | Activity (MGC-803 [2]) | Activity (MGC-803 [3]) | Activity [4] | Activity (MGC-803 [9]) | inhibition (MGC-803 [10]) | Activity (MGC-803 [11]) | Activity (HGC-27 [12]) | Activity (HGC-27 [13])
